{
  "source": "patent US6191117A",
  "about": "“Methods of producing weight loss and treatment of obesity” (priority 2000, dated 2001)",
  "origin": "cited, not measured here",
  "key": {"lateral hypothalamus [1]": {"tested_on": "lateral hypothalamus", "settings": "injection into lateral hypothalamus"}, "[2]": {"tested_on": "strychnine-insensitive glycine-binding site"}, "[3]": {"tested_on": "NMDA receptor glycine site"}, "[4]": {"tested_on": "NMDA receptor glycine site", "settings": "bilateral LH injection"}, "NMDA receptors [5]": {"tested_on": "NMDA receptors", "settings": "in vivo"}, "NMDA receptors [6]": {"tested_on": "NMDA receptors"}, "lateral hypothalamus [7]": {"tested_on": "lateral hypothalamus", "settings": "rats previously given intrahypothalamic injections"}, "seizure patients": {"tested_on": "seizure patients", "settings": "monotherapy"}, "[8]": {"tested_on": "PFH (perifornical hypothalamus)"}, "[9]": {"tested_on": "PVN (paraventricular nucleus)"}, "[10]": {"settings": "injection into LH bilaterally for 8 days"}},
  "note": "Entries after “also recorded” stand apart in the source; their conditions may differ. Read-outs that look alike come from different tables or passages of the source.",
  "data": [
    {"molecule": "Cc1onc(O)c1CC(N)C(=O)O", "note": "(racemic) [AMPA, D,L-α-amino-3-hydroxy-5-methyl-isoxazole proprionic acid]", "values": [
      {"measurement": "eating response on LH injection", "setting": "lateral hypothalamus [1]", "result": "elicit a strong dose-dependent eating response; also recorded: elicited eating in a dose-dependent fashion; also recorded: trigger intense eating; also recorded: quantitatively similar eating responses"}
    ]},
    {"molecule": "O=C(O)c1cc(O)c2ccc(Cl)cc2n1", "note": "[7-CK, 7-chlorokynurenic acid]", "values": [
      {"measurement": "food intake", "setting": "[2]; into intracerebral ventricles or paraventricular nucleus", "result": "dose-dependently increased food intake"},
      {"measurement": "AMPA-elicited eating", "setting": "[3]; 7-CK 0.1 nmol", "result": "suppressed feeding elicited by KA or AMPA; also recorded: virtually blocking it"},
      {"measurement": "KA-elicited eating", "setting": "[3]; 7-CK 0.1 nmol", "result": "suppressed feeding elicited by KA or AMPA; also recorded: suppressed KA-elicited eating"},
      {"measurement": "NMDA-elicited eating", "setting": "[3]; 7-CK 0.1 nmol", "result": "enhanced NMDA-elicited eating"},
      {"measurement": "AMPA-elicited eating", "setting": "[3]; 7-CK 10 nmol", "result": "suppressed eating elicited by AMPA"},
      {"measurement": "KA-elicited eating", "setting": "[3]; 7-CK 10 nmol", "result": "enhancing eating elicited by KA; also recorded: markedly enhanced the KA-elicited response"},
      {"measurement": "NMDA-elicited eating", "setting": "[3]; 7-CK 10 nmol", "result": "blocked NMDA-elicited eating"},
      {"measurement": "NMDA-elicited eating", "setting": "[3]; LH injection before NMDA, satiated rats, dose not stated (high doses)", "result": "blocked"},
      {"measurement": "eating produced by fasting", "setting": "[4]", "result": "effectively suppressed eating produced by fasting"}
    ]},
    {"molecule": "N[C@H](CCCP(=O)(O)O)C(=O)O", "note": "[D-AP5]", "values": [
      {"measurement": "eating responses elicited by AMPA", "setting": "NMDA receptors [5]", "result": "without affecting"},
      {"measurement": "eating responses elicited by kainic acid", "setting": "NMDA receptors [5]", "result": "without affecting"},
      {"measurement": "reduction of the 10-gram eating response elicited by NMDA", "setting": "NMDA receptors [5]", "result": "72-90%"},
      {"measurement": "suppression of deprivation-induced eating responses", "setting": "NMDA receptors [6]; in vivo", "result": "≤ 61", "unit": "%"},
      {"measurement": "suppression of nocturnal eating", "setting": "NMDA receptors [6]; in vivo", "result": "≤ 40", "unit": "%"},
      {"measurement": "body weight loss", "setting": "NMDA receptors [6]; [10]", "result": "up to 13 grams/day"},
      {"measurement": "reduction in daily food intake", "setting": "NMDA receptors [6]; [10]", "result": 65, "unit": "%"}
    ]},
    {"molecule": "N[C@H](CO)C(=O)O", "note": "[D-serine]", "values": [
      {"measurement": "7CK induced feeding", "setting": "[2]; rat, in vivo", "result": "dose-dependently antagonized 7CK induced feeding"}
    ]},
    {"molecule": "C=C(C)[C@H]1CN[C@H](C(=O)O)[C@H]1CC(=O)O", "note": "[KA, Kainic acid]", "values": [
      {"measurement": "eating response on LH injection", "setting": "lateral hypothalamus [1]", "result": "elicit a strong dose-dependent eating response; also recorded: elicited eating in a dose-dependent fashion; also recorded: trigger intense eating"},
      {"measurement": "eating response on LH injection", "setting": "lateral hypothalamus [1]; listed as kainic acid", "result": "quantitatively similar eating responses"},
      {"measurement": "feeding and drinking", "setting": "lateral hypothalamus [7]", "result": "impaired"}
    ]},
    {"molecule": "Nc1nnc(-c2cccc(Cl)c2Cl)c(N)n1", "note": "[LTG]", "values": [
      {"measurement": "action on sodium channel", "setting": "sodium channel", "result": "blocking the sodium channel"},
      {"measurement": "anorexia and nausea incidence", "setting": "100 mg and 200 mg, adjunctive therapy and monotherapy", "result": "6-15%"},
      {"measurement": "effect on body weight", "setting": "12 months or up to 144 weeks", "result": "no significant effect on body weight"}
    ]},
    {"molecule": "NC(=O)N1c2ccccc2C=Cc2ccccc21", "note": "[carbamazepine]", "values": [
      {"measurement": "weight gain as monotherapy", "setting": "seizure patients", "result": "associated with weight gain"}
    ]},
    {"molecule": "NCCc1ccc(O)c(O)c1", "note": "[dopamine]", "values": [
      {"measurement": "effect on eating in PFH", "setting": "[8]", "result": "feeding-suppressive effects"}
    ]},
    {"molecule": "CNC[C@H](O)c1ccc(O)c(O)c1", "note": "[epinephrine]", "values": [
      {"measurement": "effect on eating in PFH", "setting": "[8]", "result": "feeding-suppressive effects"}
    ]},
    {"molecule": "N[C@@H](CCC(=O)O)C(=O)O", "note": "[glutamate]", "values": [
      {"measurement": "eating response on LH injection", "setting": "lateral hypothalamus [1]", "result": "elicit a strong dose-dependent eating response; also recorded: elicited eating in satiated rats"},
      {"measurement": "effect on eating in PFH", "setting": "[8]", "result": "relatively ineffective"},
      {"measurement": "autonomic and endocrine effects (PFH injection)", "setting": "[8]; PFH injections", "result": "can produce autonomic and endocrine effects"},
      {"measurement": "effect on eating in PVN", "setting": "[9]", "result": "relatively ineffective"},
      {"measurement": "autonomic and endocrine effects (PVN injection)", "setting": "[9]; PVN injections", "result": "can produce autonomic and endocrine effects"}
    ]},
    {"molecule": "NCC(=O)O", "note": "[glycine]", "values": [
      {"measurement": "block by 7-CK of NMDA-elicited eating, after LH pretreatment with glycine", "setting": "[3]; LH pretreatment", "result": "reversed this block"}
    ]},
    {"molecule": "NC[C@H](O)c1ccc(O)c(O)c1", "note": "[norepinephrine]", "values": [
      {"measurement": "effect on eating in PVN", "setting": "[9]", "result": "feeding-stimulatory effects"}
    ]},
    {"molecule": "CCCC(CCC)C(=O)O", "note": "[valproate]", "values": [
      {"measurement": "weight gain as monotherapy", "setting": "seizure patients", "result": "associated with weight gain"}
    ]},
    {"molecule": "NCCCC(=O)O", "note": "[γ-aminobutyric acid]", "values": [
      {"measurement": "effect on eating in PVN", "setting": "[9]", "result": "feeding-stimulatory effects"}
    ]},
    {"molecule": "neuropeptide Y", "values": [
      {"measurement": "effect on eating in PFH", "setting": "[8]", "result": "feeding-stimulatory effects"}
    ]}
  ]
}
